What was measured:
[1] = test system: cultured human bladder smooth muscle cells; assay: Voltage clamp recording of outward current, human cells; type: cell-based; conditions: human bladder smooth muscle cells, FIG. 3d
Description: (§1) Single cell recordings are performed with a List-Medical EPC-7 patch clamp amplifier (Adams & List Assoc., Westbury, N.Y.). Pipette electrodes had tip resistances of 2–4 MΩ and are filled with the following composition (mM): KCl (126.0), MgCl2.6H2O (4.5), ATP Mg salt (4.0), GTP tris salt (0.3), creatine PO4 (14.0), D-glucose (9.0), EGTA (9.0), HEPES (9.0). The pH is adjusted to 7.4 with KOH. Signals are acquired (3 kHz high frequency cut-off, 12 bit resolution) using a 586-based personal computer.
Whole cell recordings are made using broken patch access. Currents are evoked using either voltage steps (Vh=−50; Vt=−60 to 40 mV) or voltage ramps (−60 to 40 mV at 3.3 mV/sec.). The exact voltage clamp protocols are well known in the art. After stability is achieved control currents are recorded. Next, test compound is added to the superfusate. Currents are recorded for 5 to 10 minutes or until compound effects reach steady state. This is followed either by washout or addition of antagonists (linopirdine, XE-991) to the superfusate.
Cellular electrophysiological studies were conducted using both voltage and current clamp techniques (Hammill, O., P., Marty, A., Neher, E., Sakmann, B. & Sigworth, F. J.: Improved patch-clamp techniques for high-resolution current recordings from cells and cell-free membrane patches. Pflugers Arch 391: 85–100 (1981)) from Sprague-Dawley rat (200–400 grams) bladders as previously described, (Wojdan, A., Freeden, C., Woods, M., Oshiro, G., Spinelli, W. et al., J. Pharmacol Exp Therap 289: 1410–1418 (1999)) and from a human bladder, primary cell culture (Colnetics, San Diego, Calif.). In rat cells, the average, control resting membrane potential (RMP) was −29.0±4.5 mV. […]
(§2) Rat bladder strips were isolated and prepared as previously described (Wojdan, A., Freeden, C., Woods, M., Oshiro, G., Spinelli, W. et al., J Pharmacol ExpTherap 289:1410–1418 (1999)). […] Message for KCNQ subunits was probed using quantitative rtPCR on an ABI PRISM 7700 Sequence Detection System (TAQMAN). […]

[2] = test system: cultured human bladder smooth muscle cells; assay: Current clamp recording of resting membrane potential, human cells; type: cell-based; conditions: resting membrane potential −8.0±2.8 mV before retigabine; n=3
Description: as §1
Cell resting membrane potential (RMP) is measured in current clamp using the above mentioned instrumentation and pipette solutions. For these experiments nystatin is also added to the pipette solution (100 μg/ml) to allow recording through utilization of the perforated patch technique (Korn, et al, 1991). After stable access is achieved, RMP is recorded for a 5 minute control period followed by 5 minute of drug application (0.3 and 1.0 μM). After this time, various antagonists (linopirdine, XE-991) are added to the perfusate and RMP is recorded for an additional 5 minutes. […]
as §2

rat bladder micturition = assay: Rat bladder cystometry, hyperreflexic bladder (0.25% acetic acid infusate); type: in vivo
Description: Micturition frequency is enhanced by the stimulation of sensory afferents using a dilute acetic acid solution in the cystometric infusate as previously described by Birder and de Groat (Birder L A. de Groat W C. Increased c-fos expression in spinal neurons after irritation of the lower urinary tract in the rat. J Neuroscience 12: 4878–89, (1992)). Briefly, female Sprague-Dawley rats (190–210 g) are anesthetized with urethane (lg/kg/10 mL, i. p.; 1 g/kg/10 mL, s. q.). The trachea is cannulated with PE205 to ensure a patent airway. The external jugular is cannulated with PE50 tubing for administration of compound. The bladder is exposed through a midline incision, and an angiocatheter (24 g, TEFLON), is heat flared at the end and inserted into the dome of the bladder and secured with 4-0 silk. The bladder is flushed with normal saline and allowed to equilibrate for 1 hour before cystometry is performed. Using a “T” connector, the bladder catheter is connected to a Statham pressure transducer (Model P23Db) and to a Harvard infusion pump. Cystometric recordings are monitored on a GRASS polygraph while infusing the bladder with saline containing 0.25% acetic acid at a rate of 2.4 mL/hr. for one hour. Next, compound is administered intravenously and the cystometry monitored for an additional 2 hours. The following cystometric parameters are recorded: micturition interval, micturition amplitude, micturition threshold pressure, bladder capacity, bladder compliance and the number of spontaneous bladder contractions (SBC) during the filling phase. The control period is taken as the 30 minute time period of acetic acid saline perfusion before dosing.
Rat bladder micturition frequency (enhanced by infusate containing 0.25% acetic acid (Birder, L. A., & deGroat, W., C. Increased c-fos expression in spinal neurons after irritation of the lower urinary tract in the rat. J Neurosc 12: 4878–4889 (1992))) was inhibited by retigabine in a dose-dependent (0.1–10 mg/kg, i.p.) manner. At 10 mg/kg, micturition was blocked in 100% of animals dosed; the population ED50 was 1–2 mg/kg (n=5–8). Micturition block lasted for up to 90 minutes (FIG. 4a).
Rat bladder strips were isolated and prepared as previously described (Wojdan, A., Freeden, C., Woods, M., Oshiro, G., Spinelli, W. et al., J Pharmacol ExpTherap 289:1410–1418 (1999)). Preparations were contracted with either 20 or 60 mM KCl, or 200 nM carbachol. A five minute area under the contraction curve was acquired 20 minutes after addition of each concentration of retigabine using a 12 bit D/A and a 586 based personal computer running custom software. Message for KCNQ subunits was probed using quantitative rtPCR on an ABI PRISM 7700 Sequence Detection System (TAQMAN). Forward and reverse primers and TAQMAN probes were designed using published RNA sequences for human KCNQ1–5 and rat KCNQ 1–4 listed within the NCBI data base. Since no rat sequence for KCNQ5 were currently published, probes and primers were designed by BLAST analysis of rat Expressed Sequence Tags (EST) using the known mouse KNCQ5 sequence. From homologous EST sequences, a contiguous sequence of 384 base pairs was constructed. Probes and primers were designed against this sequence. BLAST analysis of our rat KCNQ5 probes and primer were selective for mouse and human KCNQ5 sequences. PCR products were confirmed by gel electrophoresis (data not shown). Cells for electrophysiology were prepared from rat bladder smooth muscle as previously described (Wojdan et al., 1999). Human bladder smooth muscle cells were obtained from Clonetics, San Diego, Calif. Cells were removed from culture with trypsin and added directly into the recording chamber. All recordings were made at 320 C and acquired on a 586 based personal computer using pCLAMP (Axon Instruments) software. Current clamp recordings were performed with nystatin access as previously described (Wojdan et al.). […]

CCOC(=O)Nc1ccc(NCc2ccc(F)cc2)cc1N [retigabine, N-[2-amino-4-(4-fluorobenzylamino)-phenyl]carbamic acid ethyl ester]
effect on outward current [1]: increased outward currents | effect on outward current ([1]; listed as Retigabine): increased an outward current | hyperpolarization of cells [2]: 11±1.1 mV | frequency of spontaneous contractions during bladder filling (rat bladder micturition; 0.1 mg/kg, in comparison to the control): significantly reduced | inhibition of spontaneous contractions (rat bladder micturition; 1 mg/kg, i.p., p<0.05): 43.5±14.1% | animals in which micturition was blocked (rat bladder micturition; 10 mg/kg, i.p.): 100% | micturition (rat bladder micturition; 10 mg/kg, i.p., within minutes of dosing, four rats): completely blocked | ED50 (rat bladder micturition; Rattus norvegicus, ip, n=5–8, read-out: population ED50 for micturition block): 1 to 2 mg/kg | micturition frequency (rat bladder micturition; dose-dependent, 0.1–10 mg/kg, i.p.): inhibited | duration of micturition block (rat bladder micturition; i.p., FIG. 4a): up to 90 minutes

Reference: patent US7160684B2, “Methods of selecting compounds for modulation of bladder function” (Wyeth, priority 2000, dated 2007)
